# Where two headings read alike, the source gives them in different places.
# What was measured:
# [1] = tested on: leukemic cells; experiment: Trypan blue exclusion in combination with MTT activity; format: cell-based, human; conditions: in words
# Description: Adherent cells were seeded at 67×10^3 cells/mL in a 96 well plate (Falcon, Mississauga, Ontario) the day prior to exposure to compound. Suspension cells were seeded at 27×10^4 cells/mL in a 96 well plate the day of exposure to compound. Mononucleated, T-cell depleted normal bone marrow cells were seeded at 67×10^4 cells/mL in a 96 well plate the day of exposure to compound. Compounds and solvent control were added to cells and assayed in triplicate or sextuplet. Following 48 h of incubation at 37° C. with 5% CO2, 40 μL of a 5 mg/mL solution of 3-[4,5-dimethylthiazol-2-yl]-2,5-diphenyltetrazolium bromide (MTT) substrate (Sigma) in Dulbecco's phosphate-buffered saline (D-PBS) was added. After 4 h of incubation at 37° C. with 5% CO2, the resulting violet formazan precipitate was solubilized by the addition of 80 μL of a 0.01 M HCI, 10% sodium dodecyl sulfate (SDS; Sigma) solution overnight at 37° C. with 5% CO2. The plates were then analyzed using the BioRad Benchmark Microplate Reader (BioRad Laboratories, Hercules, Calif.) at 570 nm to determine the optical density of the samples. MTT data was analyzed using Prism 3.0 (GraphPad Software, Inc., San Diego, Calif.) by the Chou-Talalay method. MTT graphs shown are a representative experiment.
# Leukemic cells were seeded in a 24-well plate (Nunc, Naperville, Ill.) at 25×10^4 cells/mL. Cells were then exposed in triplicate to solvent control or the approximate MTT50 concentration of compounds B, C, F, G or H at 10 μg/mL, or I at 5 μg/mL. The final solvent volume was 2.4 μL/mL of media for trypan blue exclusion assay. The compound was replenished after 48 h of treatment. Cell counts were evaluated using a 1:1 dilution of cell suspension in trypan blue (Gibco-BRL, Mississauga, Ontario, Canada). Viable and nonviable cells were counted using a hemocytometer. Cells which excluded trypan blue were counted as viable whereas stained cells were counted as nonviable. Trypan blue exclusion graphs shown are a representative experiment.
# Leukemic cells were seeded in a 24-well plate (Nunc, Naperville, Ill.) at 25×10^4 cells/mL. Cells were then exposed in triplicate to solvent control or the approximate MTT50 concentration of compounds F (10 μg/mL), G (10 μg/mL) or 1 (5 μg/mL). The final solvent volume was 2.4 μL/mL of media for trypan blue exclusion assay. The compound was replenished after 48 h of treatment. Cell counts were evaluated using a 1:1 dilution of cell suspension in trypan blue (Gibco-BRL, Mississauga, Ontario, Canada). Viable and nonviable cells were counted using a hemocytometer. Cells which excluded trypan blue were counted as viable whereas stained cells were counted as nonviable. Trypan blue exclusion graphs shown are a representative experiment.
# [2] = tested on: Aspergillus niger; experiment: Antifungal paper disk test, diameter of clear zone; format: cell-based; conditions: for zone of inhibition at 100 µg/disc: read-out: Diameter (mm) of clear Zone A. niger
# Method in brief: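 Antifungal activity against Aspergillus niger was assessed by a paper disk assay. Six 5 mm agar plugs from a 5-8 day old colony were homogenized in 2 ml sterile distilled water. A 0.5 ml aliquot was spread over Sabouraud Dextrose Agar plates. Compounds in acetone were applied to disks, with neat acetone controls. Plates were incubated 2 days at 18-20° C. Clear-zone diameter was measured on four replicate plates.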
# [3] = tested on: Aspergillus flavus; experiment: Antifungal paper disk test, diameter of clear zone; format: cell-based; conditions: for zone of inhibition at 100 µg/disc: read-out: Diameter (mm) of clear Zone A. flavus
# Method in brief: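 Sulfur compounds were screened against a pure culture of Aspergillus flavus kept on Sabouraud Dextrose Agar. Six 5 mm agar plugs from a 5-8 day old colony were homogenized in 2 ml sterile distilled water, and 0.5 ml was spread over 15 ml Sabouraud Dextrose Agar plates. Paper disks received compound dissolved in acetone, with controls given neat acetone (20 μl). Plates were incubated at 18-20° C. for 2 days in four replicates, and the diameter of the clear zone around each disk was measured.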
# [4] = Aspergillus niger, 100 μg/disk, acetone
# [5] = Aspergillus flavus, 100 μg/disk, acetone
structure (smiles),measurement,setting,value
"COC(=O)CSSC [H, methyl 3,4-dithiopentanoate]",Cytotoxicity to the leukemic cells (trypan blue exclusion with MTT activity),[1],cytotoxic to the leukemic cells in a dose-dependent manner
same,Diameter (mm) of clear Zone A. niger,"[2]; 100 μg/disk, acetone",0 mm
same,Diameter (mm) of clear Zone A. flavus,"[3]; 100 μg/disk, acetone",0 mm
"CSSc1ccc([N+](=O)[O-])cc1 [M, methyl p-nitrophenyl disulphide]",Diameter (mm) of clear Zone A. niger,"[2]; 10 μg/disk, acetone, listed as p-CH3SS(C6H4)NO2",3.8 mm
same,zone of inhibition at 10 µg/disc,"[2]; Aspergillus niger, 10 μg/disk, acetone",3.9 mm
same,zone of inhibition at 10 µg/disc,"[3]; Aspergillus flavus, 10 μg/disk, acetone",4 mm
"CS(C)(=O)=O [Compound A, dimethyl sulfone]",Diameter (mm) of clear Zone A. niger,"[2]; 100 μg/disk, acetone",0 mm
same,Diameter (mm) of clear Zone A. flavus,"[3]; 100 μg/disk, acetone",0 mm
"c1ccc(SSc2ccccc2)cc1 [D, diphenyl disulphide]",Cytotoxicity to the leukemic cells (trypan blue exclusion with MTT activity),[1],cytotoxic to the leukemic cells in a dose-dependent manner
same,zone of inhibition at 100 µg/disc,[2]; [4],0 mm
same,zone of inhibition at 100 µg/disc,[3]; [5],0 mm
"CSSCOC(C)=O [I, 2,3-dithiabutyl acetate]",Cytotoxicity to the leukemic cells (trypan blue exclusion with MTT activity),[1],cytotoxic to the leukemic cells in a dose-dependent manner
same,zone of inhibition at 100 µg/disc,[2]; [4],2.3 mm
same,zone of inhibition at 100 µg/disc,[3]; [5],2.3 mm
"CSSCS(=O)(=O)c1ccc(C)cc1 [Compound C, α-p-toluenesulfonyl dimethyl disulphide]",Cytotoxicity to the leukemic cells (trypan blue exclusion with MTT activity),[1],cytotoxic to the leukemic cells in a dose-dependent manner
same,Diameter (mm) of clear Zone A. niger,"[2]; 25 μg/disk, acetone",10.9 mm
same,Diameter (mm) of clear Zone A. flavus,"[3]; 25 μg/disk, acetone",8.0 mm
"CCC(=O)OCSSc1ccccc1 [Compound Q, 1-phenyl-1,2-dithiapropyl propionate]",zone of inhibition at 2.5 µg/disc,"[2]; Aspergillus niger, 2.5 μg/disk, acetone",3.5 mm
same,zone of inhibition at 2.5 µg/disc,"[3]; Aspergillus flavus, 2.5 μg/disk, acetone",2.3 mm
"CSSCCS(C)(=O)=O [F, 2,3,6-trithiaheptane 6,6,-dioxide]",Cytotoxicity to the leukemic cells (trypan blue exclusion with MTT activity),[1],cytotoxic to the leukemic cells in a dose-dependent manner
same,Diameter (mm) of clear Zone A. niger,"[2]; 100 μg/disk, acetone",0 mm
same,Diameter (mm) of clear Zone A. flavus,"[3]; 100 μg/disk, acetone",0 mm
"CSCSSC [Compound N, 2,3,5-trithiahexane]",zone of inhibition at 100 µg/disc,[2]; Aspergillus niger,0 mm
same,zone of inhibition at 100 µg/disc,[3]; Aspergillus flavus,0 mm
"CS(=O)(=O)CSSc1ccccc1 [E, 5-phenyl-2,4,5-trithiapentane 2,2-dioxide]",Cytotoxicity to the leukemic cells (trypan blue exclusion with MTT activity),[1],cytotoxic to the leukemic cells in a dose-dependent manner
same,zone of inhibition at 25 µg/disc,"[2]; Aspergillus niger, 25 μg/disk, acetone",0.8 mm
same,zone of inhibition at 25 µg/disc,"[3]; Aspergillus flavus, 25 μg/disk, acetone",1.8 mm
"CS(=O)(=O)CSCS(C)(=O)=O [G, 2,4,6-trithiaheptane 2,2,6,6-tetraoxide]",zone of inhibition at 100 µg/disc,[2]; [4],0 mm
same,zone of inhibition at 100 µg/disc,[3]; [5],0 mm

# From patent publication US20030220524A1, “Sulfur containing compounds” (priority 2000, published 2003)
